Source: patent publication US9884063B2, “Amido-substituted azole compounds” (Bayer Pharma Aktiengesellschaft, priority 2014, dated 2018)

Experiments:
TNKS1 [1] = molecular target: T1, TNKS1 (Homo sapiens, UniProt O95271); test: Modified TNKS1 Assay 3 (BPS kit #80573, biotin-NAD+, 96 well); format: biochemical; conditions: human TNKS1, BPS kit #80573, 96 well
T1 sequence (O95271 1-1327): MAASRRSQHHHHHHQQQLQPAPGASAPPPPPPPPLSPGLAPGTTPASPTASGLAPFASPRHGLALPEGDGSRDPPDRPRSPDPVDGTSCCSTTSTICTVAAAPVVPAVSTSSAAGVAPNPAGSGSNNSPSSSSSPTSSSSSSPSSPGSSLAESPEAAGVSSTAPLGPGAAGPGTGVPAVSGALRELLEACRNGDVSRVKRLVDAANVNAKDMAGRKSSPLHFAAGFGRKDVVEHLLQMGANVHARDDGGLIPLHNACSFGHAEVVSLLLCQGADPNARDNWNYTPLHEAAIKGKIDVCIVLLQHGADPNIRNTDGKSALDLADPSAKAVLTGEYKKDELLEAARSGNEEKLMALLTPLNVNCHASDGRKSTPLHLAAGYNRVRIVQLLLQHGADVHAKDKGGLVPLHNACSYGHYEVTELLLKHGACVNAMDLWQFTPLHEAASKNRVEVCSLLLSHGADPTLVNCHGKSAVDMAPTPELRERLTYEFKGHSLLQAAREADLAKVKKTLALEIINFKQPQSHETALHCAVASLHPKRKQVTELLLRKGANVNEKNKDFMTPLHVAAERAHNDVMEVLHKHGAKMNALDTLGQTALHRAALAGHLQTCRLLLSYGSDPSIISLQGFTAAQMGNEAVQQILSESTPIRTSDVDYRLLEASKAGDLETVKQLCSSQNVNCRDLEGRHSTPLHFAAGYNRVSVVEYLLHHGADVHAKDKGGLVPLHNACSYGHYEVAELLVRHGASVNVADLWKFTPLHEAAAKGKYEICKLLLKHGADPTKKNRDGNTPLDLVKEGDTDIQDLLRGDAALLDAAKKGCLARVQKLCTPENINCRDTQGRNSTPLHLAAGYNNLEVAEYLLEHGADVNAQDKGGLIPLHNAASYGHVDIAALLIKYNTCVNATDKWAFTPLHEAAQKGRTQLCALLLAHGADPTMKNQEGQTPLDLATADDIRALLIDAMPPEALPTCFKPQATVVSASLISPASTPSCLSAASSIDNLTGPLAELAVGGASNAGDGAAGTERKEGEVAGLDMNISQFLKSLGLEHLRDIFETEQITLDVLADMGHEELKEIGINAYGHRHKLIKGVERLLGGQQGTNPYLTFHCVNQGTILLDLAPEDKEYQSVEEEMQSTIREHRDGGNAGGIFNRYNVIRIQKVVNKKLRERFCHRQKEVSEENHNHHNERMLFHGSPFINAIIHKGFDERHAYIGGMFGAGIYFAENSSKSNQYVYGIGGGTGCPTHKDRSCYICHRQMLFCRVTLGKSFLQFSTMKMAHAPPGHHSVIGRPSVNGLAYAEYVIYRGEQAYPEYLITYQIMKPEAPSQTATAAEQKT
Outline: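 Chemiluminescent assay of TNKS1-catalysed ribosylation of a protein substrate with biotin-labelled NAD+, detected via streptavidin-HRP; run per kit protocol. Inhibition lowers the signal, and IC50 is the compound concentration halving the normalised readout.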

TNKS1 [2] = molecular target: T1, TNKS1; test: TNKS1 Assay 1 (TNKS1 Histone Ribosylation Assay Kit, biotin-labeled NAD+); format: biochemical; conditions: chemiluminescent readout, 384 well
Method: The potency of the compounds according to the invention was assessed by applying an in vitro inhibition assay. The TNKS1 catalyzed NAD^+-dependent ribosylation of a suitable protein substrate was detected using a commercially available biotin/streptavidin binding based assay format [TNKS1 Histone Ribosylation Assay Kit (Biotin-labeled NAD+), Catalog #80579; BPS Bioscience, San Diego, USA]. Here, the incorporation of a biotin-labeled NAD+ during the TNKS1 catalyzed ribosylation reaction was detected with a streptavidin-HRP coupled chemi-luminescent readout. The intensity of the readout signal is proportional to the incorporated NAD^+. Inhibition of TNKS1 leads to a decreased incorporation of NAD^+ and consequently to a lower readout signal intensity. The concentration of a test compound which inhibits the enzyme activity by 50% (corresponds to half of the normed readout signal intensity) is reported as IC50.
The assay was conducted in a 384 well MTP format according to the manufacturer's protocol [bpsbioscience.com/poly-adp-ribose-polymerase/assay-kit/tnks1-histone-ribosylation-assay-kit-biotin-labeled-nad-80579 referencing: Brown, J. A., Marala, R. B. J. Pharmacol. Toxicol. Methods 2002 47:137-41] and using a BMG Pherastar MTP reader [BMG-Labtech, Offenburg, Germany].

[3] = system: HEK293 FOP control reporter cell line; test: HEK293 FOP Assay (FOP control vector luciferase reporter); format: cell-based; conditions: Homo sapiens
Outline: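 Compound series 50 μM to 15 nM, 3.16-fold steps, were diluted in CAFTY buffer (pH 7.4, 2 mM Ca2+, 0.01% BSA) and tested alongside the TOP reporter line. Human Wnt-3a was added at 2500–5 ng/ml in two-fold steps. The control HEK293 line stably holds an FOP vector whose TCF elements are randomized and non-functional.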

[4] = HEK293 FOP control reporter cells, 16 hours, luciferase, dilution series from 50 μM

Row | IC50 (TNKS1 [1]) | IC50 (TNKS1 [2]; Table 1) | IC50 (TNKS1 [2]; first table) | SMILES | IC50 [3, 4] | IC50 ([3]; HEK293 FOP control reporter cell line, 16 hours incubation, compound dilution series 50 μM to 15 nM)
1 | 130 nM | 70 nM | 70 nM | CNC(=O)c1nc[nH]c1C(=O)Nc1ccc(NC(=O)c2ccc(F)cc2Cl)nc1 [Example 16, N^5-{6-[(2-chloro-4-fluorobenzoyl)amino]pyridin-3-yl}-N^4-methyl-1H-imidazole-4,5-dicarboxamide] | ≥ 50000 nM | –
2 | 260 nM | 20 nM | 20 nM | CNC(=O)c1nc[nH]c1C(=O)Nc1ccc(NC(=O)c2ccc(F)cc2Cl)cc1 [Example 12, N^5-{4-[(2-chloro-4-fluorobenzoyl)amino]phenyl}-N^4-methyl-1H-imidazole-4,5-dicarboxamide] | ≥ 50000 nM | –
3 | 400 nM | 140 nM | 140 nM | O=C(Nc1ccc(NC(=O)c2[nH]cnc2C(=O)NCC(F)(F)F)cc1)c1ccc(F)cc1Cl [Example 30, N^4-{4-[(2-chloro-4-fluorobenzoyl)amino]phenyl}-N^5-(2,2,2-trifluoroethyl)-1H-imidazole-4,5-dicarboxamide] | 37500 nM | –
4 | – | 70 nM | 70 nM | CNC(=O)c1nc[nH]c1C(=O)Nc1ccc(NC(=O)c2ccc(OCCN(C)C)cc2Cl)cc1 [Example 25, N^5-[4-({2-chloro-4-[2-(dimethylamino)ethoxy]benzoyl}amino)phenyl]-N^4-methyl-1H-imidazole-4,5-dicarboxamide] | 34000 nM | 34000 nM
5 | – | 770 nM | 770 nM | CNC(=O)c1nc[nH]c1C(=O)Nc1ccc(NC(=O)c2c(C)cc(F)cc2C)cc1 [Example 23, N^5-{4-[(4-fluoro-2,6-dimethylbenzoyl)amino]phenyl}-N^4-methyl-1H-imidazole-4,5-dicarboxamide] | ≥ 50000 nM | –
